From patent US11730743B2, “Protection of cells from degeneration and treatment of geographic atrophy” (University of Kentucky Research Foundation, priority 2012, dated 2023)

Columns and labels:
[1] = tested on: NLRP3; assay: NLRP3 mRNA by real-time RT-PCR in human RPE cells; assay type: cell-based
Excerpt: mRNA abundance. Transcript abundance was quantified by real-time RT-PCR using an Applied Biosystems 7900 HT Fast Real-Time PCR system using the 2^−ΔΔct method.
Real-time PCR. Total RNA was extracted from tissues or cells using Trizol reagent (Invitrogen) according to manufacturer's recommendations, DNase treated and reverse transcribed (QuantiTect, Qiagen). The RT products (cDNA) were amplified by real-time quantitative PCR (Applied Biosystems 7900 HT Fast Real-Time PCR system) with Power SYBR green Master Mix. Oligonucleotide primers specific for human IL1B, human NLRP3, human 18S rRNA, mouse Myd88, mouse Nlrp3, mouse 1118, and mouse 18S rRNA were used. The QPCR cycling conditions were 50° C. for 2 min, 95° C. for 10 min followed by 40 cycles of a two-step amplification program (95° C. for 15 s and 58° C. for 1 min). At the end of the amplification, melting curve analysis was applied using the dissociation protocol from the Sequence Detection system to exclude contamination with unspecific PCR products. […] For negative controls, no RT products were used as templates in the QPCR and verified by the absence of gel-detected bands. Relative expressions of target genes were determined by the 2^−ΔΔct method.

[2] = tested on: IL18; assay: IL18 mRNA by real-time RT-PCR in human RPE cells; assay type: cell-based
[3] = tested on: wild-type mice; assay: Alu RNA- or pAlu-induced RPE degeneration after subretinal injection (fundus photographs, ZO-1 flat mounts); assay type: in vivo; conditions: subretinal pAlu, test agent intravitreous
Description: Subretinal injection and imaging. Subretinal injections (1 μL) in mice were performed using a Pico-Injector (PLI-100, Harvard Apparatus). In vivo transfection of plasmids was achieved using 10% Neuroporter (Genlantis). Fundus imaging was performed on a TRC-50 IX camera (Topcon) linked to a digital imaging system (Sony). Immunolabeling of RPE flat mounts was performed using antibodies against human zonula occludens-1 (Invitrogen).
Fundus photography. Retinal photographs of dilated mouse eyes were taken with a TRC-50 IX camera (Topcon) linked to a digital imaging system (Sony).
Immunolabeling. Human eyes fixed in 2-4% paraformaldehyde were prepared as eyecups, cryoprotected in 30% sucrose, embedded in optimal cutting temperature compound (Tissue-Tek OCT; Sakura Finetek), and cryosectioned into 10 μm sections. Depigmentation was achieved using 0.25% potassium permanganate and 0.1% oxalic acid. Immunohistochemical staining was performed with the rabbit antibody against NLRP3 (1:100, Sigma Aldrich) or rabbit antibody against Caspase-1 (prediluted, AbCam). Isotype IgG was substituted for the primary antibody to assess the specificity of the staining. Bound antibody was detected with biotin-conjugated secondary antibodies, followed by incubation with ABC reagent and visualized by Vector Blue (Vector Laboratories). Levamisole (Vector Laboratories) was used to block endogenous alkaline phosphatase activity. Slides were washed in PBS, counterstained with neutral red (Fisher Scientific), rinsed with deionized water, air dried, and then mounted in Vectamount (Vector Laboratories). Fluorescent labeling of human tissue was performed with the rabbit antibody against PYCARD (1:50, Clone N-15, Santa Cruz Biotechnology). Immunolabeling was visualized by fluorescently conjugated anti-rabbit secondary antibody (Invitrogen). Tissue autofluorescence was quenched by incubating the sections in 0.3% Sudan black (Fisher Scientific). Sections were mounted in Vectashield with DAPI (Vector Laboratories). Mouse RPE/choroid flat mounts were fixed with 4% paraformaldehyde or 100% methanol, stained with rabbit antibodies against human zonula occludens-1 (1:100, Invitrogen) and visualized with Alexa594 (Invitrogen). All images were obtained using the Leica SP-5 or Zeiss Axio Observer Z1 microscopes.
Subretinal injection. Subretinal injections (1 μL) in mice were performed using a Pico-Injector (PLI-100, Harvard Apparatus). In vivo transfection of plasmids coding for two different Alu sequences (pAlu) or empty control vector (pNull) (Bennett et al., 2008; Kaneko et al., 2011; Shaikh et al., 1997) was achieved using 10% Neuroporter (Genlantis). AAV1-BEST1-Cre (Alexander and Hauswirth, 2008) or AAV1-BEST1-GFP were injected at […] pfu/mL and in vitro transcribed Alu RNA was injected at 0.3 mg/mL.
Drug treatments. siRNAs formulated in siRNA buffer (20 mM KCL, 0.2 mM MgCl2 in HEPES buffer at pH 7.5; Dharmacon) or phosphate buffered saline (PBS; Sigma-Aldrich); the TLR4 antagonist Ultra Pure Rhodobacter sphaeroides LPS (LPS-RS, InvivoGen), a peptide inhibitor of MyD88 homodimerization IMG-2005 (IMGENEX), control inhibitor (IMGENEX), recombinant IL-18 (Medical & Biological Laboratories), neutralizing rat antibodies against mouse IL-1β (IMGENEX), neutralizing rat antibodies against mouse IL-18 (Medical & Biological Laboratories), isotype control IgGs (R&D Systems or eBioscience as appropriate), Caspase-1 inhibitor Z-WEHD-FMK (R&D Systems), Caspase-3 inhibitor Z-DEVD-FMK (R&D Systems), Caspase control inhibitor Z-FA-FMK (R&D Systems), (2R,4R)-APDC (Enzo Life Sciences), Glipizide (Sigma-Aldrich), Glyburide (Sigma-Aldrich), and P2X7 receptor antagonist A438079 (Tocris Bioscience) were dissolved in phosphate buffered saline (PBS; Sigma-Aldrich) or dimethyl sulfoxide (DMSO; Sigma-Aldrich), and injected into the vitreous humor in a total volume of 1 μL with a 33-gauge Exmire microsyringe (Ito Corporation). […]

N[C@@]1(C(=O)O)CN[C@@H](C(=O)O)C1 [APDC, (2R,4R)-APDC]
blocked: pAlu-induced NLRP3 mRNA upregulation [1] | pAlu-induced IL18 mRNA upregulation [2] | pAlu-induced RPE degeneration [3]
